According to patent publication US12398154B2, “Azaquinazoline pan-KRas inhibitors” (Mirati Therapeutics, Inc., priority 2020, dated 2025):

Assays:
KRas G12V = KRas G12V (Homo sapiens, UniProt P01116, G12V); test: biochemical;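 further: KRas binding measured by TR-FRET displacement at room temperature, IC50 fitted from percent of control values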
Description: (§5) The ability of a compound to bind to KRas was measured using a TR-FRET displacement assay. […] After a 60-minute incubation at room temperature, the reaction was measured using a BMG LABTECH CLARIO star Plus via TR-FRET. […] The POC values were fit to a 4-parameter IC50 equation and the IC50 value reported.

KRas G12D = KRas G12D (Homo sapiens, UniProt P01116, G12D); test: biochemical;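 further: TR-FRET displacement binding assay on KRas, read after a one-hour incubation at room temperature, IC50 fitted from percent-of-control values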
Chain of KRas G12D (P01116 1-169 isoform P01116-2 G12D): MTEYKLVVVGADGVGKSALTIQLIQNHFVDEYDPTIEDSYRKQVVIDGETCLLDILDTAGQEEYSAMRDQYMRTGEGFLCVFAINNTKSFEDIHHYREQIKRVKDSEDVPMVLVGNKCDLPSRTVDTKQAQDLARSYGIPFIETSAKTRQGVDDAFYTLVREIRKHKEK
Description: as §5

pERK in PSN1 cells = test: Inhibition of KRas phosphorylation of ERK (Cisbio HTRF pERK assay); conditions: Homo sapiens, PSN1, 3 h, read-out: Inhibition (HTRF IC50) of KRas-mediated Phosphorylation of ERK, PSN1
KRas G12R = KRas G12R (Homo sapiens, UniProt P01116, G12R); test: biochemical;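 further: TR-FRET displacement assay of compound binding to KRas, read after one hour at room temperature, potency from a four-parameter fit of percent-of-control values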
Chain of KRas G12R (P01116 1-169 isoform P01116-2 G12R): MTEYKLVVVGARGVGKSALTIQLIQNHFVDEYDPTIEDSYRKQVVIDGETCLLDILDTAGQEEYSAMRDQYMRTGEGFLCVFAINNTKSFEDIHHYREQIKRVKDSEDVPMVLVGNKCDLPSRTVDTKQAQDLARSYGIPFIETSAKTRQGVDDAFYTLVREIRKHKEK
Description: as §5

[1] = tested on: phospho-ERK in AsPC-1 (G12D) cells; test: Inhibition of KRas-mediated phosphorylation of ERK (in-cell western); type: cell-based; conditions: Homo sapiens, ASPC1, 3 h, 3 hours compound, phospho-ERK normalized to GAPDH
Description: (§1) Diluted compounds were then added in a final concentration of 0.5% DMSO. After 3 hours, 50 μL of 4.0% formaldehyde was added and the plates incubated at room temperature for 20 minutes. The plates were then dumped and permeabilized with 150 μL of ice cold 100% methanol for 10 minutes.
(§2) The amount of phospho-ERK was determined using an antibody specific for the phosphorylated form of ERK and compared to the amount of GAPDH. […] The plates were incubated overnight at 4° C. The plates were washed 3× with 150 uL PBS+0.1% Tween 20.
(§3) The plates were washed 3× with 150 uL PBS+0.1% Tween 20. Plates were imaged dry on a Li-COR Odyssey CLX plate reader.
(§4) The phospho-ERK (Thr202/Tyr204) signal was normalized to the GAPDH signal for each well and percent of DMSO control values were calculated. IC50 values were generated using a 4-parameter fit of the dose response curve.

[2] = tested on: phospho-ERK in NCI-H460 (Q61H) cells; test: as above; type: cell-based; conditions: Homo sapiens, NCI-H460, 3 h, 3 hours compound, phospho-ERK normalized to GAPDH
Description: as §1, §2, §3, §4

[3] = tested on: phospho-ERK in NCI-H727 (G12V) cells; test: as above; type: cell-based; conditions: Homo sapiens, NCI-H727, 3 h, 3 hours compound, phospho-ERK normalized to GAPDH
Description: as §1, §2, §3, §4

pERK in MKN1 cells = test: Inhibition of KRas phosphorylation of ERK (Cisbio HTRF pERK assay); conditions: Homo sapiens, MKN-1, 3 h, read-out: Inhibition (HTRF IC50) of KRas-mediated Phosphorylation of ERK, MKN1

Chain of KRas G12V (P01116 1-169 isoform P01116-2 G12V): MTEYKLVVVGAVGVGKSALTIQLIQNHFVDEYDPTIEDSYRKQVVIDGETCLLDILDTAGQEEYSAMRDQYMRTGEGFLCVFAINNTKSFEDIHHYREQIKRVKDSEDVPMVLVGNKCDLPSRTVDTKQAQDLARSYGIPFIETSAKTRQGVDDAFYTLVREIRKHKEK

Row | IC50 (KRas G12V) | IC50 (KRas G12D) | IC50 (pERK in PSN1 cells) | IC50 (KRas G12R) | IC50 (pERK in MKN1 cells) | SMILES | IC50 [1] | IC50 [2] | IC50 [3]
1 | 7 nM | 18 nM | ≥ 10 µM | 14 nM | 49 nM | CCc1c(F)ccc2cc(O)cc(-c3ncc4c(N5C[C@H](O)C[C@@H](F)C5)nc(OC[C@@]56CCCN5C[C@H](F)C6)nc4c3F)c12 [Example 178] | 606 nM | 728 nM | 2110 nM
2 | ≤ 2 nM | 4 nM | 6.91 µM | 4 nM | 10 nM | CCc1c(F)ccc2cc(O)cc(-c3ncc4c(N5C[C@@H](C)C[C@@H](O)C5)nc(OC[C@@]56CCCN5C[C@H](F)C6)nc4c3F)c12 [Example 180] | 205 nM | 113 nM | 623 nM
3 | 17 nM | 29 nM | 6.7 µM | 10 nM | 139 nM | CCc1c(F)ccc2cc(O)cc(-c3ncc4c(N5CCC[C@@H](O)[C@H]5C)nc(OC[C@@]56CCCN5C[C@H](F)C6)nc4c3F)c12 [Example 181] | 1540 nM | 584 nM | 1610 nM
4 | 9 nM | 11 nM | 4.84 µM | 9 nM | 17 nM | CCc1c(F)ccc2cc(O)cc(-c3ncc4c(N5CCC[C@@H](O)[C@@H]5C)nc(OC[C@@]56CCCN5C[C@H](F)C6)nc4c3F)c12 [Example 185] | 306 nM | 424 nM | 481 nM
5 | 5 nM | 12 nM | ≥ 10 µM | 6 nM | 38 nM | CCc1c(F)ccc2cc(O)cc(-c3ncc4c(N5C[C@H](C)C[C@@H](O)C5)nc(OC[C@@]56CCCN5C[C@H](F)C6)nc4c3F)c12 [Example 187] | 470 nM | 133 nM | 550 nM
6 | 19 nM | 48 nM | ≥ 10 µM | 23 nM | 77 nM | CCc1c(F)ccc2cc(O)cc(-c3ncc4c(N5CC[C@H](C)[C@@H](O)C5)nc(OC[C@@]56CCCN5C[C@H](F)C6)nc4c3F)c12 [Example 188] | 2070 nM | 478 nM | 2140 nM
7 | 18 nM | 32 nM | 5.54 µM | 18 nM | 29 nM | CCc1c(F)ccc2cc(O)cc(-c3ncc4c(N5CC[C@@H](C)[C@@H](O)C5)nc(OC[C@@]56CCCN5C[C@H](F)C6)nc4c3F)c12 [Example 189] | 1240 nM | 377 nM | 1430 nM
8 | ≤ 2 nM | ≤ 2 nM | 7.34 µM | ≤ 2 nM | 4 nM | CCc1c(F)ccc2cc(O)cc(-c3ncc4c(N5C[C@H](O)C[C@H](F)C5)nc(OC[C@@]56CCCN5C[C@H](F)C6)nc4c3F)c12 [Example 192] | 90 nM | 51 nM | 191 nM

Further lines, the compound ahead of its results:

Row | SMILES | IC50 (KRas G12V) | IC50 (KRas G12D) | IC50 (pERK in PSN1 cells) | IC50 (KRas G12R) | IC50 (pERK in MKN1 cells) | IC50 [1] | IC50 [2] | IC50 [3]
9 | CCc1c(F)ccc2cc(O)cc(-c3ncc4c(NCc5n[nH]cc5C(N)=O)nc(OC[C@@]56CCCN5C[C@H](F)C6)nc4c3F)c12 [Example 162] | ≤ 2 nM | 31 nM | ≥ 10 µM | 3 nM | 187 nM | 4530 nM | 6770 nM | 4170 nM
10 | CCc1c(F)ccc2cc(O)cc(-c3ncc4c(NC56CC(CO)(C5)C6)nc(OC[C@@]56CCCN5C[C@H](F)C6)nc4c3F)c12 [Example 167, 5-ethyl-6-fluoro-4-(8-fluoro-2-(((2R,7aS)-2-fluorohexahydro-1H-pyrrolizin-7a-yl)methoxy)-4-((3-(hydroxymethyl)bicyclo[1.1.1]pentan-1-yl)amino)pyrido[4,3-d]pyrimidin-7-yl) naphthalen-2-ol] | ≤ 2 nM | 16 nM | ≥ 10 µM | ≤ 2 nM | 3 nM | 6760 nM | 623 nM | 1250 nM
11 | CCc1c(F)ccc2cc(O)cc(-c3ncc4c(NCCc5c[nH]nn5)nc(OC[C@@]56CCCN5C[C@H](F)C6)nc4c3F)c12 [Example 169, 4-(4-((2-(1H-1,2,3-triazol-4-yl)ethyl)amino)-8-fluoro-2-(((2R,7aS)-2-fluorohexahydro-1H-pyrrolizin-7a-yl)methoxy)pyrido[4,3-d]pyrimidin-7-yl)-5-ethyl-6-fluoronaphthalen-2-ol] | ≤ 2 nM | 4 nM | ≥ 10 µM | ≤ 2 nM | 100 nM | 2890 nM | 931 nM | 1810 nM
12 | CCc1c(F)ccc2cc(O)cc(-c3ncc4c(NCc5ccc6nonc6c5)nc(OC[C@@]56CCCN5C[C@H](F)C6)nc4c3F)c12 [Example 175, 4-(4-((benzo[c][1,2,5]oxadiazol-5-ylmethyl)amino)-8-fluoro-2-(((2R,7aS)-2-fluorohexahydro-1H-pyrrolizin-7a-yl)methoxy)pyrido[4,3-d]pyrimidin-7-yl)-5-ethyl-6-fluoronaphthalen-2-ol] | ≤ 2 nM | 38 nM | ≥ 10 µM | ≤ 2 nM | 39 nM | 1720 nM | 675 nM | 756 nM
13 | CCc1c(F)ccc2cc(O)cc(-c3ncc4c(N5CCC(F)(F)C(O)C5)nc(OC[C@@]56CCCN5C[C@H](F)C6)nc4c3F)c12 (some centres unmarked) [Example 191] | 4 nM | 9 nM | 5.85 µM | 4 nM | 15 nM | 665 nM | 230 nM | 714 nM
14 | CCc1c(F)ccc2cc(O)cc(-c3ncc4c(NCCCc5cccnc5)nc(OC[C@@]56CCCN5C[C@H](F)C6)nc4c3F)c12 [Example 198, 5-ethyl-6-fluoro-4-(8-fluoro-2-(((2R,7aS)-2-fluorohexahydro-1H-pyrrolizin-7a-yl)methoxy)-4-((3-(pyridin-3-yl)propyl)amino)pyrido[4,3-d]pyrimidin-7-yl)naphthalen-2-ol] | 9 nM | 86 nM | ≥ 10 µM | 8 nM | 183 nM | 2690 nM | 803 nM | 1750 nM
15 | CCc1c(F)ccc2cc(O)cc(-c3ncc4c(NCc5ccc(=O)n(C)c5)nc(OC[C@@]56CCCN5C[C@H](F)C6)nc4c3F)c12 [Example 199] | ≤ 2 nM | 3 nM | ≥ 10 µM | ≤ 2 nM | 7 nM | 1320 nM | 314 nM | 798 nM
16 | NS(=O)(=O)CC1CCCN(c2nc(OC[C@@]34CCCN3C[C@H](F)C4)nc3c(F)c(-c4cc(O)cc5ccc(F)c(F)c45)ncc23)C1 (some centres unmarked) [Example 203] | ≤ 2 nM | ≤ 2 nM | 3.71 µM | ≤ 2 nM | 35 nM | 8010 nM | 758 nM | 1270 nM
17 | CCc1c(F)ccc2cc(O)cc(-c3ncc4c(N5CCC[C@]6(CNC(=O)C6)C5)nc(OC[C@]56CCCN5C[C@@H](O)C6)nc4c3F)c12 [Example 206] | ≤ 2 nM | ≤ 2 nM | ≥ 10 µM | ≤ 2 nM | 34 nM | 6960 nM | 3380 nM | 3330 nM
18 | CCc1c(F)ccc2cc(O)cc(-c3ncc4c(Nc5cnn(-c6ccncc6)c5)nc(OC[C@@]56CCCN5C[C@H](F)C6)nc4c3F)c12 [Example 297, 5-ethyl-6-fluoro-4-(8-fluoro-2-(((2R,7aS)-2-fluorohexahydro-1H-pyrrolizin-7a-yl)methoxy)-4-((1-(pyridin-4-yl)-1H-pyrazol-4-yl)amino)pyrido[4,3-d]pyrimidin-7-yl)naphthalen-2-ol] | ≤ 2 nM | 54 nM | ≥ 10 µM | 9 nM | 154 nM | 3430 nM | 660 nM | 450 nM
19 | CCc1c(F)ccc2cc(O)cc(-c3ncc4c(N5CCC[C@@](C)(O)C5)nc(OC[C@]56CCCN5[C@@H](CO)CC6)nc4c3F)c12 [Example 303, (R)-1-(7-(8-ethyl-7-fluoro-3-hydroxynaphthalen-1-yl)-8-fluoro-2-(((3R,7aR)-3-(hydroxymethyl)hexahydro-1H-pyrrolizin-7a-yl)methoxy)pyrido[4,3-d]pyrimidin-4-yl)-3-methylpiperidin-3-ol] | ≤ 2 nM | ≤ 2 nM | ≥ 10 µM | ≤ 2 nM | 358 nM | 3290 nM | 4120 nM | 3690 nM
